The values that follow come from patent EP3628672A1 (priority 2018, dated 2020).

One assay deals with T1, purified LasB protein from P. aeruginosa (Pseudomonas aeruginosa, UniProt P14756).
T1 construct: purchased Merck or Charles River Laboratories
T1 sequence (P14756 198-498): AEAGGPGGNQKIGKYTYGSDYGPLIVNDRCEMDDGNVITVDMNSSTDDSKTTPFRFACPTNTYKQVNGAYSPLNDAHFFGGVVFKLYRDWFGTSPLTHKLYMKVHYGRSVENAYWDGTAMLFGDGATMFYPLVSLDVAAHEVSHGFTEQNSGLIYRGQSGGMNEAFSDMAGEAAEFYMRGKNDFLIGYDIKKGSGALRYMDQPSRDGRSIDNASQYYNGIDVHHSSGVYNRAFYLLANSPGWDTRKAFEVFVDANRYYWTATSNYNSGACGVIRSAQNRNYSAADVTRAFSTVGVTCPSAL
Description: Fluorometric assay to determine Ki (Abz-Ala-Gly-Leu-Ala-p-Nitro-Benzyl-Amide substrate). In kind it is biochemical.
Conditions: not given
As to the method:
Experiments were therefore conducted (1) to measure the potency of inhibition of compounds of the invention against purified Pseudomonas aeruginosa LasB enzyme and also experiments were conducted (2) to measure the ability of compounds of the invention to inhibit LasB-catalysed elastin degradation. The first assay uses a commercial fluorescent synthetic peptide and purified LasB enzyme. The LasB hydrolysis kinetics are measured allowing the determination of the IC50 and Ki of the inhibitors; the second is a more physiological assay using dialysed Pseudomonas aeruginosa supernatant as source of enzyme, plus its natural substrate Elastin. It is an "end point assay" that determines the percentage of LasB inhibition by each compound for one particular time point and inhibitor concentration. Technical details are described below:
This assay uses commercially available substrate (Abz-Ala-Gly-Leu-Ala-p-Nitro-Benzyl-Amide (Ex: 340 nm, Em: 415 nm) from Peptide International) and purified LasB protein from P. aeruginosa (provided by Merck or Charles River Laboratories). It is performed to determine LasB elastase activity and assess compound inhibition in 96-well plate format. All compounds of Formula (I) were assessed using the method described below.
Method: 10 to 140 ng/ml purified LasB is incubated with 250 µM Abz-Ala-Gly-Leu-Ala-p-Nitro-Benzyl-Amide in 50 mM Tris-HCl pH 7.4, 2.5 mM CaCl2, 0.01% of Triton X100 at 37°C. LasB activity (corresponding to fluorescence emission induced by substrate hydrolysis) is measured over 30 min at 37°C with a fluorescence plate reader such as the Perkin Elmer Envision or similar. Different range of inhibitor concentrations are routinely assessed depending of inhibitor potency from 0.0016 to 200 µM (2-fold dilutions series) in order to determine IC50.
The equation used to calculate the Ki from IC50 is: Ki = IC50 / (1+([S]/Km)) where [S] = 250 µM and Km = 214 µM.
In the case of `O=C(O)CC1(C(=O)NCc2nc(-c3cnn(CCCN4CCCCC4)c3)cs2)Cc2ccccc2C1` [Example 111, 2-[2-[[4-[1-[3-(1-piperidyl)propyl]pyrazol-4-yl]thiazol-2-yl]methylcarbamoyl]indan-2-yl]acetic acid], the Ki (commonly a dissociation constant, usually derived from enzyme kinetics or from competition with a known ligand) is 200 to 10000 nM.
For the compound `O=C(O)CC1(C(=O)NCc2nc3ccccc3s2)Cc2cc(Cl)c(Cl)cc2C1` [Example 4, 2-(2-((benzo[d]thiazol-2-ylmethyl)carbamoyl)-5,6-dichloro-2,3-dihydro-1H-inden-2-yl)acetic acid], the Ki was in the range of 200 to 10000 nM.
The same measure, in the same setting: to `CN(C)[C@H]1CCN(C(=O)c2ccc(-c3csc(CNC(=O)C4(CC(=O)O)Cc5ccccc5C4)n3)cc2)C1` [Example 18, 2-[2-[[4-[4-[(3S)-3-(dimethylamino)pyrrolidine-1-carbonyl]phenyl]thiazol-2-yl]methylcarbamoyl]indan-2-yl]acetic acid] belongs 200 to 10000 nM; to `CN(C)CCn1cc(-c2csc(CNC(=O)C3(CC(=O)O)Cc4ccccc4C3)n2)cn1` [Example 97, 2-[2-[[4-[1-[2-(dimethylamino)ethyl]pyrazol-4-yl]thiazol-2-yl]methylcarbamoyl]indan-2-yl]acetic acid], 200 to 10000 nM.
Still for that read-out and setting: to `CN(C)C(=O)C1CCN(CCCn2cc(-c3csc(CNC(=O)C4(CC(=O)O)Cc5ccccc5C4)n3)cn2)CC1` [Example 113, 2-[2-[[4-[1-[3-[4-(dimethylcarbamoyl)-1-piperidyl]propyl]pyrazol-4-yl]thiazol-2-yl]methylcarbamoyl]indan-2-yl]acetic acid] belongs 200 to 10000 nM.
The compound `C[N+]1(C)CCN(C(=O)c2ccc(-c3csc(CNC(=O)C4(CC(=O)[O-])Cc5ccccc5C4)n3)cc2)CC1` [Example 22, 2-[2-[[4-[4-(4,4-dimethylpiperazin-4-ium-1-carbonyl)phenyl]thiazol-2-yl]methylcarbamoyl]indan-2-yl]acetate] returned a Ki of 200 to 10000 nM.
On the same count and under the same terms, to `CC(=O)N1CC[N+](C)(CCCn2cc(-c3csc(CNC(=O)C4(CC(=O)[O-])Cc5ccccc5C4)n3)cn2)CC1` [Example 107, 2-[2-[[4-[1-[3-(4-acetyl-1-methyl-piperazin-1-ium-1-yl)propyl]pyrazol-4-yl]thiazol-2-yl]methylcarbamoyl]indan-2-yl]acetate] belongs 200 to 10000 nM.
Consider `C[n+]1ccc(CCn2cc(-c3csc(CNC(=O)C4(CC(=O)[O-])Cc5ccccc5C4)n3)cn2)cc1` [Example 117, 2-[2-[[4-[1-[2-(1-methylpyridin-1-ium-4-yl)ethyl]pyrazol-4-yl]thiazol-2-yl]methylcarbamoyl]indan-2-yl]acetate], for which the Ki fell in the range of 200 to 10000 nM.
On the same count and under the same terms, to `CN(C)C1CCN(C(=O)c2ccc(-c3csc(CNC(=O)C4(CC(=O)O)Cc5ccccc5C4)n3)cc2)CC1` [Example 17, 2-[2-[[4-[4-[4-(dimethylamino)piperidine-1-carbonyl]phenyl]thiazol-2-yl]methylcarbamoyl]indan-2-yl] acetic acid] belongs 200 to 10000 nM; to `CN(C)CC(=O)Nc1cccc(-c2csc(CNC(=O)C3(CC(=O)O)Cc4ccccc4C3)n2)c1` [Example 41, 2-[2-[[4-[3-[[2-(dimethylamino)acetyl]amino]phenyl]thiazol-2-yl]methylcarbamoyl]indan-2-yl]acetic acid], 200 to 10000 nM; to `NC1CCN(C(=O)COc2ccc(-c3csc(CNC(=O)C4(CC(=O)O)Cc5ccccc5C4)n3)cc2)CC1` [Example 52, 2-[2-[[4-[4-[2-(4-amino-1-piperidyl)-2-oxo-ethoxy]phenyl]thiazol-2-yl]methylcarbamoyl]indan-2-yl]acetic acid], 50 to 200 nM.
On the same count and under the same terms, to `C[n+]1ccc(CCCn2cc(-c3csc(CNC(=O)C4(CC(=O)[O-])Cc5ccccc5C4)n3)cn2)cc1` [Example 118, 2-[2-[[4-[1-[3-(1-methylpyridin-1-ium-4-yl)propyl]pyrazol-4-yl]thiazol-2-yl]methylcarbamoyl]indan-2-yl]acetate] belongs 200 to 10000 nM; to `COc1ccc(C(=O)NCCN(C)C)cc1-c1csc(CNC(=O)C2(CC(=O)O)Cc3ccccc3C2)n1` [Example 24, 2-[2-[[4-[5-[2-(dimethylamino)ethylcarbamoyl]-2-methoxy-phenyl]thiazol-2-yl]methylcarbamoyl]indan-2-yl]acetic acid], 200 to 10000 nM; to `CN1CCN(C(=O)c2cncc(-c3csc(CNC(=O)C4(CC(=O)O)Cc5ccccc5C4)n3)c2)CC1` [Example 144, 2-[2-[[4-[5-(4-methylpiperazine-1-carbonyl)-3-pyridyl]thiazol-2-yl]methylcarbamoyl]indan-2-yl]acetic acid], 200 to 10000 nM.
Compound `CN(C)CCOc1ccc(-c2csc(CNC(=O)C3(CC(=O)O)Cc4ccccc4C3)n2)cc1` [Example 48, 2-[2-[[4-[4-[2-(dimethylamino)ethoxy]phenyl]thiazol-2-yl]methylcarbamoyl]indan-2-yl]acetic acid] showed a Ki of 200 to 10000 nM.
Take `CN(C)CCCNC(=O)c1ccccc1-c1csc(CNC(=O)C2(CC(=O)O)Cc3ccccc3C2)n1` [Example 21, 2-[2-[[4-[2-[3-(dimethylamino)propylcarbamoyl]phenyl]thiazol-2-yl]methylcarbamoyl]indan-2-yl]acetic acid]: the Ki was in the range of 200 to 10000 nM.
Compound `CN(C)CCNS(=O)(=O)c1ccc(-c2csc(CNC(=O)C3(CC(=O)O)Cc4ccccc4C3)n2)cc1` [Example 131, 2-[2-[[4-[4-[2-(dimethylamino)ethylsulfamoyl]phenyl]thiazol-2-yl]methylcarbamoyl]indan-2-yl]acetic acid] displayed a Ki of 200 to 10000 nM.
`C[N+](C)(C)CC(=O)Nc1cccc(-c2csc(CNC(=O)C3(CC(=O)[O-])Cc4ccccc4C3)n2)c1` [Example 42, 2-[2-[[4-[3-[[2-(trimethylammonio)acetyl]amino]phenyl]thiazol-2-yl]methylcarbamoyl]indan-2-yl] acetate] came in with a Ki of 200 to 10000 nM.
`C[N+](C)(C)CC(=O)Nc1ccc(-c2csc(CNC(=O)C3(CC(=O)[O-])Cc4ccccc4C3)n2)cc1` [Example 40, 2-[2-[[4-[4-[[2-(trimethylammonio)acetyl]amino]phenyl]thiazol-2-yl]methylcarbamoyl]indan-2-yl] acetate] showed a Ki of 200 to 10000 nM.
On the same count and under the same terms, to `CN(C)C1CN(c2cccc(-c3csc(CNC(=O)C4(CC(=O)O)Cc5ccccc5C4)n3)c2)C1` [Example 29, 2-[2-[[4-[3-[3-(dimethylamino)azetidin-1-yl]phenyl]thiazol-2-yl]methylcarbamoyl]indan-2-yl]acetic acid] belongs 200 to 10000 nM.
In the case of `CN(C)CCOc1cccc(-c2csc(CNC(=O)C3(CC(=O)O)Cc4ccccc4C3)n2)c1` [Example 53, 2-[2-[[4-[3-[2-(dimethylamino)ethoxy]phenyl]thiazol-2-yl]methylcarbamoyl]indan-2-yl]acetic acid], the Ki is 200 to 10000 nM.
On the same count and under the same terms, to `COc1ccc(C(=O)N2CCN(C)CC2)cc1-c1csc(CNC(=O)C2(CC(=O)O)Cc3ccccc3C2)n1` [Example 25, 2-[2-[[4-[2-methoxy-5-(4-methylpiperazine-1-carbonyl)phenyl)thiazol-2-yl]methylcarbamoyl]indan-2-yl]acetic acid] belongs 200 to 10000 nM.

Staying with this assay, now noted: Ki calculated from IC50, [S] = 250 µM, Km = 214 µM; 37°C, pH 7.4.
In the case of `C[N+]1(CCCn2cc(-c3csc(CNC(=O)C4(CC(=O)[O-])Cc5ccccc5C4)n3)cn2)CCOCC1` [Example 100, 2-[2-[[4-[1-[3-(4-methylmorpholin-4-ium-4-yl)propyl]pyrazol-4-yl]thiazol-2-yl]methylcarbamoyl]indan-2-yl]acetate], the Ki was 200 to 10000 nM.
Take `C[N+]1(C)CCC(C(=O)N2CC[N+](C)(CCCn3cc(-c4csc(CNC(=O)C5(CC(=O)O)Cc6ccccc6C5)n4)cn3)CC2)CC1` [Example 115, 2-[2-[[4-[1-[3-[4-(1,1-dimethylpiperidin-1-ium-4-carbonyl)-1-methyl-piperazin-1-ium-1-yl]propyl]pyrazol-4-yl]thiazol-2-yl]methylcarbamoyl]indan-2-yl] acetate]: the Ki was 200 to 10000 nM.
